According to patent US20150338330A1, “Method for Comprehensive Assessment of Platelet Aggregation” (FUJIMORI KOGYO CO., LTD.,, priority 2012, published 2015):

What was measured:
Assay type in all cases: cell-based
platelets [1] = test: Filter back-pressure measurement of platelet aggregation, arachidonic acid (6.25 mM or 10 mM), citrated blood
Protocol: (§1) The apparatus in FIG. 1 was prepared for use in the following experiments.
(§2) As the container 1 (blood reservoir), a cylindrical acrylic container having a capacity of 450 μl (inner diameter, 6 mm; depth, 16 mm) was used.
(§3) As the filter, a circular nickel micromesh filter having 30 μm×30 μm square openings (pitch size, 45 μm) and a diameter of 1 mm, placed at the center of the filter section was used.
To the blood reservoir, 30 or 50 μl (final concentration, 6.25 mM or 10 mM, respectively) of 100 mM arachidonic acid (manufactured by Dynabite GmbH) was added, and 450 μl of blood collected in a Terumo blood collection tube (Venoject, containing 3.13% sodium citrate) was added thereto. After mixing the resulting mixture, the filter device was connected to the blood reservoir. One minute after the mixing of the blood with the collagen reagent, mineral oil was injected into the blood reservoir at a flow rate of 60 μl/minute to inject the blood into the filter device.
The back pressure exerted on the mineral oil was continuously monitored for 5 minutes at intervals of 1 second using the pressure sensor. In addition, the same measurement was carried out for a mixture prepared by mixing 50 μl of an arachidonic acid reagent with blood to which aspirin was added to a final concentration of 100 μM.

platelets [2] = test: Filter back-pressure measurement of platelet aggregation, collagen reagent (final 0.7 μg/ml), citrated blood; settings: aspirin 100 μM; collagen 0.7 μg/ml
Protocol: (§4) The apparatus in FIG. 1 was prepared for use in the following experiments. As the container 1 (blood reservoir), a cylindrical acrylic container having a capacity of 450 μl (inner diameter, 6 mm; depth, 16 mm) was used. As the filter, a circular nickel micromesh filter having 30 μm×30 μm square openings (pitch size, 45 μm) and a diameter of 1 mm, placed at the center of the filter section was used. To the blood reservoir, 13 μl of 25 μg/ml (final concentration, 0.7 μg/ml) collagen reagent (manufactured by Dynabite GmbH) was added, and 450 μl of blood collected in a Terumo blood collection tube (Venoject, containing 3.13% sodium citrate) was added thereto. After mixing the resulting mixture, the filter device was connected to the blood reservoir. One minute after the mixing of the blood with the collagen reagent, mineral oil was injected into the blood reservoir at a flow rate of 60 μl/minute to inject the blood into the filter device. The back pressure exerted on the mineral oil was continuously monitored for 5 minutes at intervals of 1 second using the pressure sensor. In addition, the same measurement was carried out for blood to which aspirin was added to a final concentration of 100 μM, or blood to which both 50 μM aspirin and 250 μM AR-C66096 were added.

platelets [3] = test: Filter back-pressure measurement of platelet aggregation, PAR4-activating reagent (AYPGKF), citrated blood; settings: aspirin 100 μM
Protocol: as §4, with “reservoir, 20” for “reservoir, 13”, “of 20 mM PAR4-activating” for “of 25 μg/ml (final concentration, 0.7 μg/ml) collagen”, “reagent (peptide sequence, AYPGKF; manufactured” for “reagent (manufactured”, “sensor. The” for “sensor. In addition, the”, “100 μM.” for “100 μM, or blood to which both 50 μM aspirin and 250 μM AR-C66096 were added.”

platelets [4] = test: Multiplate impedance-based whole blood platelet aggregation, collagen (final 3.2 μg/ml); settings: aspirin 100 μM; collagen 3.2 μg/ml
Protocol: To provide controls, whole blood platelet aggregation was similarly measured for blood to which aspirin was added to a final concentration of 100 μM, and blood to which both 50 μM aspirin and 250 μM AR-C66096 were added, using Multiplate (impedance-based platelet aggregability analyzer, Dynabite GmbH). As the platelet-activating reagent, collagen (final concentration, 3.2 μg/ml) was used.

platelets [5] = test: Filter back-pressure measurement of platelet aggregation, PAR1-activating reagent (SFLLRN), citrated blood; settings: aspirin 100 μM
Protocol: as §4, with “reservoir, 20” for “reservoir, 13”, “of 1 mM PAR1-activating” for “of 25 μg/ml (final concentration, 0.7 μg/ml) collagen”, “reagent (peptide sequence, […]; manufactured” for “reagent (manufactured”, “reservoir. […]” for “reservoir. One minute after the mixing of the blood with the collagen reagent, mineral oil was injected into the blood reservoir at a flow rate of 60 μl/minute to inject the blood into the filter device.”, “sensor. The” for “sensor. In addition, the”, “100 μM.” for “100 μM, or blood to which both 50 μM aspirin and 250 μM AR-C66096 were added.”

platelets [6] = test: Multiplate impedance-based whole blood platelet aggregation, ADP (final 6.5 μM); settings: ADP 6.5 μM
Protocol: To provide controls, whole blood platelet aggregation was similarly measured for blood to which AR-C66096 was added to a final concentration of 25, 50, 100, or 250 nM, using Multiplate (impedance-based platelet aggregability analyzer, Dynabite GmbH). As the platelet-activating reagent, ADP (final concentration, 6.5 μM) was used. […] That is, in the absence of a physical load by blood flow or the like, platelet aggregates that have once adhered/aggregated to the electrode were maintained without breakdown, leading to the increase in the electric resistance.

platelets [7] = test: Filter back-pressure measurement of platelet aggregation, ADP reagent (final 5.6 μM), citrated blood; parameters: area under the curve of the pressure waveform: unit not given beside the values; settings: for area under the curve of the pressure waveform: 60 μl/minute, 5 minutes
Protocol: as §1, §2, §3
To the blood reservoir, 13 μl of […] ADP reagent (Dynabite GmbH, Germany) (final concentration, 5.6 μM) was added, and 450 μl of blood collected in a Terumo blood collection tube (Venoject, containing 3.13% sodium citrate) was added thereto. The resulting mixture was mixed in the blood reservoir, and the filter device was connected to the blood reservoir. One minute after the mixing of the blood with the ADP reagent, mineral oil was injected into the blood reservoir at a flow rate of 60 μl/minute to inject the blood into the filter device.
The back pressure exerted on the mineral oil was continuously monitored for 5 minutes at intervals of 1 second using the pressure sensor. In addition, the same measurement was carried out for blood to which AR-C66096 (platelet P2Y12 receptor inhibitor; Tocris Bioscience, UK) was added to a final concentration of 25, 50, 100, or 250 nM.

platelets [8] = test: Filter back-pressure measurement, collagen reagent (final 1.4 μg/ml), repeated 5 times; settings: collagen final 1.4 μg/ml; 5 times of measurement; no inhibitor
Protocol: as §1, §2, §3
To the blood reservoir, 13 μl of 50 μg/ml (final concentration, 1.4 μg/ml) collagen reagent (manufactured by Dynabite GmbH) was added, and 450 μl of blood collected in a Terumo blood collection tube (Venoject, containing 3.13% sodium citrate) was added thereto. After mixing the resulting mixture, the filter device was connected to the blood reservoir. One minute after the mixing of the blood with the collagen reagent, mineral oil was injected into the blood reservoir at a flow rate of 60 μl/minute to inject the blood into the filter device.
The back pressure exerted on the mineral oil was continuously monitored for 5 minutes at intervals of 1 second using the pressure sensor. The measurement was repeated 5 times.

[9] = AR-C66096 25-250 nM, ADP 5.6 μM

In the case of `CC(=O)Oc1ccccc1C(=O)O` [aspirin], the pressure increase (platelets [1]; aspirin 100 μM, 50 μl arachidonic acid reagent (10 mM)) is reported as “suppressed”, the “beginning of the pressure increase” value (platelets [2]) is reported as “delayed” and the pressure increase (platelets [2]) is reported as “suppressed”. The “aggregation waveform obtained by the PAR4-activating peptide” value (platelets [3]) was “not inhibited”, the “AUC of the electric resistance (Multiplate)” value (platelets [4]) was 28 and the “effect on Multiplate aggregation” value (platelets [4]) was “an effect of aspirin could be found”. The “aggregation waveform obtained by the PAR1-activating peptide” value (platelets [5]) was “not inhibited”.
In the case of `CCCCC/C=C\C/C=C\C/C=C\C/C=C\CCCC(=O)O` [arachidonic acid], the “platelet activation / pressure” value (platelets [1]; arachidonic acid 6.25 mM or 10 mM) is reported as “activated platelets to increase the pressure”.
`CCCSc1nc(N)c2ncn([C@@H]3O[C@H](COP(=O)(O)OP(=O)(O)C(F)(F)P(=O)(O)O)[C@@H](O)[C@H]3O)c2n1` [AR-C66096] was tested, and the “AUC (Multiplate impedance)” value (platelets [6]; AR-C66096 25 nM) was 23, the “AUC (Multiplate impedance)” value (platelets [6]; AR-C66096 50 nM) was 19 and the “AUC (Multiplate impedance)” value (platelets [6]; AR-C66096 100 nM) was 15. The “AUC (Multiplate impedance)” value (platelets [6]; AR-C66096 250 nM) was 17, the “concentration dependence of AUC (Multiplate)” value (platelets [6]; AR-C66096 25-250 nM) was “no concentration dependence was found” and the “area under the curve of the pressure waveform” value (platelets [7]; AR-C66096 25 nM, ADP 5.6 μM) was 11.75. For the same compound, the “stability and persistence of platelet aggregates” value (platelets [7]; AR-C66096 50 nM or 100 nM, arch-shaped pressure curves) was “suppressed”, the “area under the curve of the pressure waveform” value (platelets [7]; AR-C66096 50 nM, ADP 5.6 μM) was 8.7 and the “area under the curve of the pressure waveform” value (platelets [7]; AR-C66096 100 nM, ADP 5.6 μM) was 8.05. The “area under the curve of the pressure waveform” value (platelets [7]; AR-C66096 250 nM, ADP 5.6 μM) was 7.95, the “beginning of the pressure increase” value (platelets [7]; [9]) was “delayed” and the pressure increase (platelets [7]; [9]) was “suppressed the pressure increase in a concentration-dependent manner”.
collagen was tested, and the “area under the curve of the pressure waveform (mean±SD)” value (platelets [8]) was 15.11±0.8.
